Common to all, as to test: chlorophyll a fluorescence induction (OJIP), inhibition of 1-VJ (QA to QB electron transfer) in living algal cells
Common to all, as to assay type: cell-based
Conditions in all cases: read-out: Atrazine / I50×10^-7 M / (±SE)

In assay [1] the target is T1, photosystem II (PSII) D1 protein (Chlamydomonas reinhardtii, UniProt P07753, I281T).
T1 construct: gene psbA; full-length D1 from intronless psbA in the chloroplast, assembled in native PSII (with D2 and other subunits) in living algal cells; D1 mutants by ep-PCR of Ala153-Ala294 region and biolistic transformation of Del1
An excerpt:
(§1) chlorophyll a fluorescence induction (OJIP), inhibition of 1-VJ (QA to QB electron transfer) in living algal cells on photosystem II (PSII) D1 protein

The target of assay [2] is T2, photosystem II (PSII) D1 protein (Chlamydomonas reinhardtii, UniProt P07753, L200I).
T2 construct: gene psbA; full-length D1 from intronless psbA in the chloroplast, assembled in native PSII (with D2 and other subunits) in living algal cells; D1 mutants by ep-PCR of Ala153-Ala294 region and biolistic transformation of Del1
Source text: as §1

Assay [3] addresses T3, photosystem II (PSII) D1 protein (Chlamydomonas reinhardtii, UniProt P07753, M172L).
T3 construct: gene psbA; full-length D1 from intronless psbA in the chloroplast, assembled in native PSII (with D2 and other subunits) in living algal cells; D1 mutants by ep-PCR of Ala153-Ala294 region and biolistic transformation of Del1
Source text: as §1

The target in assay [4] is T4, photosystem II (PSII) D1 protein (Chlamydomonas reinhardtii, UniProt P07753, F211S/P162S).
T4 construct: gene psbA; full-length D1 from intronless psbA in the chloroplast, assembled in native PSII (with D2 and other subunits) in living algal cells; D1 mutants by ep-PCR of Ala153-Ala294 region and biolistic transformation of Del1
Source text: as §1

The target of assay [5] is T5, photosystem II (PSII) D1 protein (Chlamydomonas reinhardtii, UniProt P07753).
T5 construct: gene psbA; full-length D1 from intronless psbA in the chloroplast, assembled in native PSII (with D2 and other subunits) in living algal cells; D1 mutants by ep-PCR of Ala153-Ala294 region and biolistic transformation of Del1
Source text: as §1

Assay [6] deals with T6, photosystem II (PSII) D1 protein (Chlamydomonas reinhardtii, UniProt P07753, G207S).
T6 construct: gene psbA; full-length D1 from intronless psbA in the chloroplast, assembled in native PSII (with D2 and other subunits) in living algal cells; D1 mutants by ep-PCR of Ala153-Ala294 region and biolistic transformation of Del1
Source text: as §1

In the case of `CCNc1nc(Cl)nc(NC(C)C)n1` [Atrazine, 2-chloro-4-(ethylamine)-6-(isopropylamine)-s-triazine], the IC50 in assay [1] was 200 nM; in assay [2], 180 nM; in assay [3], 220 nM; in assay [4] it was 1970 nM; in assay [5], 240 nM; in assay [6], 210 nM.

These data come from publication PMC3629139, “A Powerful Molecular Engineering Tool Provided Efficient Chlamydomonas Mutants as Bio-Sensing Elements for Herbicides Detection” (PLoS ONE, 2013).
